The results in this text go back to patent US11498896B2 (The Broad Institute, Inc., priority 2014, dated 2022).

Test [1] deals with T1, human D2R/β-arrestin (Homo sapiens (Human), UniProt P14416). The experiment in a line: cell-based. As to conditions: cAMP Antagonist.
Description: Cells were prepared for assays by growing cultures for up to 2 weeks (from about 6-20 passages). A vial of frozen cells was thawed in a water bath held at 37° C. The cells were then transferred into a 50 ml tube with 10 ml growth media. The vial was rinsed with growth media and the contents transferred to the 50 ml tube. The 50 ml tube was centrifuged at 1200 rpm for 5 minutes at room temperature. […] When the cells reached about 90% confluence (approximately 3 days between passages), the cells were passaged and used for either the agonist or antagonist assays as described below.
The cells were prepared for Gi/cAMP assays as described above. The assays were performed using a PE Lance Ultra cAMP kit (TRF0263). The cells were grown on 225 mm dishes, then washed once with 1×PBS (Cellgro) before digestion with 2.5 ml 1× Detachment reagent (DRX 92-0009) for about 2 minutes. PBS (20 ml) was then added to the plate, and the cells were transferred to a 50 ml centrifuge tube, and centrifuged at room temperature using BD Dynac III, at 1200 rpm for 5 minutes. […] The plates were then incubated at room temperature for about 30 minutes before addition of Eu-cAMP tracer solution (10 μl, PerkinElmer) and then ULight-anti-cAMP solution (10 μl) to each well.
The target of test [2] is T1, human D2R/β-arrestin. The experiment in a line: cell-based. As to conditions: β-arrestin Antagonist.
For test [3], the target named is T1, human D2R/β-arrestin. The experiment in a line: Gi/cAMP agonist assay (Lance Ultra cAMP, forskolin). It counts as cell-based. The following applies: CHO-K1 cells expressing human D2R/β-arrestin; agonist mode, 2.5 μM forskolin. How it is done:
Eu-cAMP tracer solution (10 μl, PerkinElmer, 360 μl of Tracer in 17.64 ml kit buffer) and ULight-anti-cAMP solution (10 μl, 120 μL antibody in 17.88 ml kit buffer) was then added to each well.

The target in test [4] is T1, human D2R/β-arrestin. Put plainly: β-arrestin agonist assay (PathHunter). It counts as cell-based. As to conditions: CHO-K1 cells expressing human D2R/β-arrestin; agonist mode. The protocol:
The detection reagent (9.6 μL, Buffer:Emerald II:Galactor-Star in a 19:5:1 ratio, i.e., 14.06 mL:3.7 mL:0.74 mL=18.5 mL) was then added to the agonist plates.

The mark [5] stands for this setting: CHO-K1 cells expressing human D2R/β-arrestin, antagonist mode, 2.5 μM forskolin and 2.7 nM quinpirole.
The mark [6] stands for this setting: CHO-K1 cells expressing human D2R/β-arrestin, antagonist mode, quinpirole 130 nM.

T1 sequence (P14416 whole entry): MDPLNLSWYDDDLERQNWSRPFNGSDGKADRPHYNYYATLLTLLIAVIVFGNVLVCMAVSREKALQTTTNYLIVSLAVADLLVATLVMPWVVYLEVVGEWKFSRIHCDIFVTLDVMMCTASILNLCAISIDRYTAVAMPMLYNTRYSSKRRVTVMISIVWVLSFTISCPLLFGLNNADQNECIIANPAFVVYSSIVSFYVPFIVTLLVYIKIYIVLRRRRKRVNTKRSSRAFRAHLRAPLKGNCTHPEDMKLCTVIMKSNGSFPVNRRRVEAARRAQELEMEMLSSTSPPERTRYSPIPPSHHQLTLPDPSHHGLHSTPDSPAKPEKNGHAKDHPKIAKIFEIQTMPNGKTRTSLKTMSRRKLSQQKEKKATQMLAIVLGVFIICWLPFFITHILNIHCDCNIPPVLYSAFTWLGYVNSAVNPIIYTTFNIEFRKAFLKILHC

As usually defined, the IC50 is the midpoint of a concentration-inhibition curve. A higher IC50 goes with weaker potency in that assay. As a reminder, the EC50 is the concentration at which the effect is half-maximal. The low end stands for greater potency, the high end for weaker potency. Take `CNC(=O)C1(C)CCN(CC2COc3ccccc3O2)CC1` (stereo not drawn) [Compound 202, 1-((2,3-dihydrobenzo[b][1,4]dioxin-2-yl)methyl)-N,4-dimethylpiperidine-4-carboxamide]: the IC50 against human D2R/β-arrestin [1] (setting [5]) and against human D2R/β-arrestin [2] (setting [6]) was 0.1 to 1 µM throughout. Further, the EC50 on human D2R/β-arrestin [3] is under 0.1 µM; at human D2R/β-arrestin [4], over 30 µM.

As to `CC1(C(=O)NC2CC2)CCN(CC2COc3ccccc3O2)CC1` (stereo not drawn) [Compound 203, N-cyclopropyl-1-((2,3-dihydrobenzo[b][1,4]dioxin-2-yl)methyl)-4-methylpiperidine-4-carboxamide], the IC50 on human D2R/β-arrestin [1] (setting [5]) is 1 to 10 µM; against human D2R/β-arrestin [2] (setting [6]) it was 0.1 to 1 µM. In addition, the EC50 is under 0.1 µM at human D2R/β-arrestin [3] and over 30 µM on human D2R/β-arrestin [4].

As to `CC1(C(=O)Nc2ccccc2)CCN(CC2COc3ccccc3O2)CC1` (stereo not drawn) [Compound 204, 1-((2,3-dihydrobenzo[b][1,4]dioxin-2-yl)methyl)-4-methyl-N-phenylpiperidine-4-carboxamide], the values for the IC50 against human D2R/β-arrestin [1] (setting [5]) and against human D2R/β-arrestin [2] (setting [6]) were 0.1 to 1 µM and 1 to 10 µM, respectively. The figures for the 50% effective concentration (EC50) at human D2R/β-arrestin [3] and on human D2R/β-arrestin [4] were 0.1 to 1 µM and over 30 µM, respectively.

As for `CNCC1(C)CCN(C[C@H]2COc3ccccc3O2)CC1` [Compound 207, (S)-1-(1-((2,3-dihydrobenzo[b][1,4]dioxin-2-yl)methyl)-4-methylpiperidin-4-yl)-N-methylmethanamine], the IC50 at human D2R/β-arrestin [1] (setting [5]) was over 30 µM; against human D2R/β-arrestin [2] (setting [6]) it was 1 to 10 µM. For the same molecule, the EC50 on human D2R/β-arrestin [3] and on human D2R/β-arrestin [4] was 1 to 10 µM throughout.

Take `CC1(NC(=O)C(F)(F)F)CCN(C[C@H]2COc3ccccc3O2)CC1` [Compound 212, (S)—N-(1-((2,3-dihydrobenzo[b][1,4]dioxin-2-yl)methyl)-4-methylpiperidin-4-yl)-2,2,2-trifluoroacetamide]: the values for the IC50 against human D2R/β-arrestin [1] (setting [5]) and against human D2R/β-arrestin [2] (setting [6]) were over 30 µM and 0.1 to 1 µM, respectively. In addition, the EC50 on human D2R/β-arrestin [3] was under 0.1 µM; at human D2R/β-arrestin [4] it was 1 to 10 µM.

`CC(=O)N(C)C1(C)CCN(C[C@H]2COc3ccccc3O2)CC1` [Compound 213, (S)—N-(1-((2,3-dihydrobenzo[b][1,4]dioxin-2-yl)methyl)-4-methylpiperidin-4-yl)-N-methylacetamide]: the 50% inhibitory concentration (IC50) against human D2R/β-arrestin [1] (setting [5]) and against human D2R/β-arrestin [2] (setting [6]) was over 30 µM in each case. For the same molecule, the EC50 is 1 to 10 µM at human D2R/β-arrestin [3] and over 30 µM at human D2R/β-arrestin [4].

For `OCC1(Cc2ccc(Cl)cc2)CCN(CCOc2ccccc2C(F)(F)F)CC1` [Compound 214, (4-(4-chlorobenzyl)-1-(2-(2-(trifluoromethyl)phenoxy)ethyl)piperidin-4-yl)methanol], the IC50 against human D2R/β-arrestin [1] (setting [5]) and against human D2R/β-arrestin [2] (setting [6]) was 1 to 10 µM in each case. Besides, the EC50 on human D2R/β-arrestin [3] was 1 to 10 µM; at human D2R/β-arrestin [4] it was over 30 µM.

For `CC1(Cc2ccc(Cl)cc2)CCN(CCOc2ccccc2C(F)(F)F)CC1` [Compound 215, 4-(4-chlorobenzyl)-4-methyl-1-(2-(2-(trifluoromethyl)phenoxy)ethyl)piperidine], the IC50 lay in the range of 10 to 30 µM against human D2R/β-arrestin [1] (setting [5]) and 1 to 10 µM against human D2R/β-arrestin [2] (setting [6]). Also, the concentration for a half-maximal effect (EC50) at human D2R/β-arrestin [3] and at human D2R/β-arrestin [4] was 1 to 10 µM in each case.

As to `FC(F)(F)c1ccccc1OCCN1CCC2(CC1)CC2c1ccc(Cl)cc1` (stereo not drawn) [Compound 216, 1-(4-chlorophenyl)-6-(2-(2-(trifluoromethyl)phenoxy)ethyl)-6-azaspiro[2.5]octane], the IC50 on human D2R/β-arrestin [1] (setting [5]) was over 30 µM; on human D2R/β-arrestin [2] (setting [6]) it was 10 to 30 µM. For the same molecule, the EC50 on human D2R/β-arrestin [3] and on human D2R/β-arrestin [4] was over 30 µM each time.

As for `CN(C1CCCCC1)C1(C)CCN(CCOc2ccccc2C(F)(F)F)CC1` [Compound 217, N-cyclohexyl-N,4-dimethyl-1-(2-(2-(trifluoromethyl)phenoxy)ethyl)piperidin-4-amine], the IC50 on human D2R/β-arrestin [1] and on human D2R/β-arrestin [2] was 1 to 10 µM in each case. Moreover, the results for the EC50 on human D2R/β-arrestin [3] and at human D2R/β-arrestin [4] were 0.1 to 1 µM and over 30 µM, respectively.

For `CC1(C(=O)Nc2ccccc2)CCN(CCOc2ccccc2C(F)(F)F)CC1` [Compound 219, 4-methyl-N-phenyl-1-(2-(2-(trifluoromethyl)phenoxy)ethyl)piperidine-4-carboxamide], the IC50 against human D2R/β-arrestin [1] (setting [5]) and on human D2R/β-arrestin [2] (setting [6]) was 0.1 to 1 µM throughout. Also, the EC50 on human D2R/β-arrestin [3] and at human D2R/β-arrestin [4] was over 30 µM each time.

As to `CC1(C(=O)Nc2ccccc2)CCN(CCOc2ccccc2F)CC1` [Compound 220, 1-(2-(2-fluorophenoxy)ethyl)-4-methyl-N-phenylpiperidine-4-carboxamide], the IC50 against human D2R/β-arrestin [1] (setting [5]) and against human D2R/β-arrestin [2] (setting [6]) was 0.1 to 1 µM throughout. In addition, the EC50 at human D2R/β-arrestin [3] was 0.1 to 1 µM; at human D2R/β-arrestin [4], over 30 µM.

Turning to `OC1(Cc2ccccc2F)CCN(CCOc2ccccc2)C1` (stereo not drawn) [Compound 300, 3-(2-fluorobenzyl)-1-(2-phenoxyethyl)pyrrolidin-3-ol, reference compound], the IC50 on human D2R/β-arrestin [1] (setting [5]) was over 30 µM; against human D2R/β-arrestin [2] (setting [6]) it was 10 to 30 µM. Further, the EC50 on human D2R/β-arrestin [3] was 0.1 to 1 µM; on human D2R/β-arrestin [4] it was over 30 µM.

For `COc1ccccc1OCCN1CCC(C)(O)CC1` [Compound 301, reference compound], the IC50 on human D2R/β-arrestin [1] (setting [5]) is 0.1 to 1 µM; against human D2R/β-arrestin [2] (setting [6]), 1 to 10 µM. Also, the EC50 on human D2R/β-arrestin [3] and at human D2R/β-arrestin [4] was over 30 µM throughout.

On to `C#CC1(O)CCN(CCOc2ccccc2C(F)(F)F)CC1` [Compound 302, 4-ethynyl-1-(2-(2-(trifluoromethyl)phenoxy)ethyl)piperidin-4-ol, reference compound], for which the IC50 on human D2R/β-arrestin [1] (setting [5]) and at human D2R/β-arrestin [2] (setting [6]) was under 0.1 µM throughout. Besides, the EC50 on human D2R/β-arrestin [3] and on human D2R/β-arrestin [4] was over 30 µM in each case.

For `CC1(N)CCN(C[C@H]2COc3ccccc3O2)CC1` [Compound 303, reference compound], the IC50 is over 30 µM at human D2R/β-arrestin [1] (setting [5]) and 10 to 30 µM on human D2R/β-arrestin [2] (setting [6]). The figures for the EC50 at human D2R/β-arrestin [3] and on human D2R/β-arrestin [4] were 0.1 to 1 µM and over 30 µM, respectively.

Take `CC1(Oc2cccc([N+](=O)[O-])c2)CCN(CCOc2ccccc2)C1` (stereo not drawn) [Example 40, 3-Methyl-3-(3-nitrophenoxy)-1-(2-phenoxyethyl)pyrrolidine]: the half-maximal inhibitory concentration (IC50) at human D2R/β-arrestin [1] (setting [5]) is over 30 µM; at human D2R/β-arrestin [2] (setting [6]), 1 to 10 µM. Besides, the EC50 on human D2R/β-arrestin [3] is 0.1 to 1 µM; on human D2R/β-arrestin [4], over 30 µM.

Regarding `CC1(Oc2cccc(N)c2)CCN(CCOc2ccccc2)C1` (stereo not drawn) [Example 41, 3-((3-methyl-1-(2-phenoxyethyl)pyrrolidin-3-yl)oxy)aniline], the values for the IC50 on human D2R/β-arrestin [1] (setting [5]) and against human D2R/β-arrestin [2] (setting [6]) were over 30 µM and 10 to 30 µM, respectively. The EC50 at human D2R/β-arrestin [3] was 0.1 to 1 µM; at human D2R/β-arrestin [4], over 30 µM.

As for `CC1(Oc2cccc(Cl)c2)CCN(CCOc2ccccc2)C1` (stereo not drawn) [Example 42, 3-(3-chlorophenoxy)-3-methyl-1-(2-phenoxyethyl)pyrrolidine], the IC50 against human D2R/β-arrestin [1] (setting [5]) is over 30 µM; at human D2R/β-arrestin [2] (setting [6]) it was 1 to 10 µM. Moreover, the figures for the EC50 at human D2R/β-arrestin [3] and on human D2R/β-arrestin [4] were under 0.1 µM and over 30 µM, respectively.

Take `CC1(Oc2ccc([N+](=O)[O-])cc2)CCN(CCOc2ccccc2)C1` (stereo not drawn) [Example 43, 3-Methyl-3-(4-nitrophenoxy)-1-(2-phenoxyethyl)pyrrolidine]: the IC50 at human D2R/β-arrestin [1] (setting [5]) was over 30 µM; against human D2R/β-arrestin [2] (setting [6]), 1 to 10 µM. The EC50 on human D2R/β-arrestin [3] and on human D2R/β-arrestin [4] was over 30 µM throughout.

For the molecule `CC1(Oc2ccc(N)cc2)CCN(CCOc2ccccc2)C1` (stereo not drawn) [Example 44, 4-((3-methyl-1-(2-phenoxyethyl)pyrrolidin-3-yl)oxy)aniline], the IC50 at human D2R/β-arrestin [1] (setting [5]) and against human D2R/β-arrestin [2] (setting [6]) was over 30 µM in each case. Moreover, the EC50 on human D2R/β-arrestin [3] is under 0.1 µM; at human D2R/β-arrestin [4], 0.1 to 1 µM.

As to `CC1(Oc2ccccc2[N+](=O)[O-])CCN(CCOc2ccccc2)C1` (stereo not drawn) [Example 45, 3-methyl-3-(2-nitrophenoxy)-1-(2-phenoxyethyl)pyrrolidine], the values for the IC50 against human D2R/β-arrestin [1] (setting [5]) and against human D2R/β-arrestin [2] (setting [6]) were over 30 µM and 1 to 10 µM, respectively. For the same molecule, the results for the EC50 on human D2R/β-arrestin [3] and at human D2R/β-arrestin [4] were under 0.1 µM and over 30 µM, respectively.

`CC1(Oc2ccccc2Cl)CCN(CCOc2ccccc2)C1` (stereo not drawn) [Example 47, 3-(2-chlorophenoxy)-3-methyl-1-(2-phenoxyethyl)pyrrolidine]: the IC50 against human D2R/β-arrestin [1] (setting [5]) was over 30 µM; against human D2R/β-arrestin [2] (setting [6]), 1 to 10 µM. Further, the EC50 on human D2R/β-arrestin [3] was 0.1 to 1 µM; at human D2R/β-arrestin [4], over 30 µM.

Regarding `CC1(Oc2ccc(Cl)cc2Cl)CCN(CCOc2ccccc2)C1` (stereo not drawn) [Example 48, 3-(2,4-dichlorophenoxy)-3-methyl-1-(2-phenoxyethyl)pyrrolidine], the IC50 against human D2R/β-arrestin [1] (setting [5]) was over 30 µM; against human D2R/β-arrestin [2] (setting [6]), 10 to 30 µM. Also, the EC50 is under 0.1 µM on human D2R/β-arrestin [3] and over 30 µM at human D2R/β-arrestin [4].

For `CC1(Oc2cccc(Cl)c2Cl)CCN(CCOc2ccccc2)C1` (stereo not drawn) [Example 49, 3-(2,3-dichlorophenoxy)-3-methyl-1-(2-phenoxyethyl)pyrrolidine], the IC50 was over 30 µM against human D2R/β-arrestin [1] (setting [5]) and 10 to 30 µM against human D2R/β-arrestin [2] (setting [6]). Also, the EC50 on human D2R/β-arrestin [3] was 0.1 to 1 µM; at human D2R/β-arrestin [4], over 30 µM.

For `CC1(Oc2ccc(F)cc2)CCN(CCOc2ccccc2)C1` (stereo not drawn) [Example 51, 3-(4-fluorophenoxy)-3-methyl-1-(2-phenoxyethyl)pyrrolidine], the IC50 against human D2R/β-arrestin [1] (setting [5]) is over 30 µM; against human D2R/β-arrestin [2] (setting [6]), 0.1 to 1 µM. The results for the EC50 on human D2R/β-arrestin [3] and on human D2R/β-arrestin [4] were under 0.1 µM and over 30 µM, respectively.

For the molecule `CC1(Oc2cccc(F)c2)CCN(CCOc2ccccc2)C1` (stereo not drawn) [Example 52, 3-(3-fluorophenoxy)-3-methyl-1-(2-phenoxyethyl)pyrrolidine], the IC50 against human D2R/β-arrestin [1] (setting [5]) is over 30 µM; against human D2R/β-arrestin [2] (setting [6]), 1 to 10 µM. For the same molecule, the EC50 is under 0.1 µM at human D2R/β-arrestin [3] and over 30 µM at human D2R/β-arrestin [4].
